# What was measured:
# Assay type in all cases: in vivo
# [1] = system: Phaedon cochleariae larvae; assay: Critical concentration test / root-systemic action (cabbage, soil treatment)
# Protocol: (§1) Critical Concentration Test/Root-Systemic Action
# To produce a suitable preparation of active compound, 1 part by weight of active compound is mixed with the stated amount of solvent, the stated amount of emulsifier is added and the concentrate is diluted with water to the desired concentration.
# The active compound preparation is mixed intimately with soil. The concentration of the active compound in the preparation is of virtually no importance, only the amount by weight of active compound per unit volume of soil, which is given in ppm (=mg/l), being decisive. The treated soil is filled into 500 ml pots, 8 cabbage seeds are placed at a depth of approximately 1 cm, the hole is filled and the soil surface is pressed down gently.
# After a further 3 days, the test is evaluated by estimating the leaf-feeding in the treated and in the untreated plant. The effect is 100% if, compared with the untreated control, only […] feeding damage is observed; it is 0% when the entire cabbage has been eaten.
# [2] = system: Myzus persicae; assay: Critical concentration test, foliar insecticidal activity against sucking pests (leaf dip, cabbage); conditions: Myzus persicae on cabbage
# Source text: Activity of Folia-Insecticidal Formulations Against Sucking Pests
# The insecticidal activity was examined using the critical concentration test. From each of the test preparations, an aqueous dilution series is made by diluting the individual concentrations by the factor 5.
# To determine any synergistic activity, weakly active concentrations of chloronicotinyl compounds are combined with various active compound concentrations of Tracer (Spinosad).
# The test plants used are cabbage plants at the one-leaf stage which are infested by Myzus persicae (green peach aphid). The shoots or leaves with the aphids are dipped for approximately 3 seconds into the respective liquors. The experiments are subsequently placed in a greenhouse at 21° C. and 65% relative atmospheric humidity.
# Evaluation for mortality is carried out after 2 and 7 days.
# [3] = system: Aphis fabae; assay: Critical concentration test / root-systemic action (broad beans, soil treatment); conditions: 0.035 ppm in soil
# Protocol: as §1
# To produce a suitable preparation of active compound, 1 part by weight of active compound is mixed with a stated amount of solvent, the stated amount of emulsifier is added and the concentrate is diluted with water to the desired concentration.
# The active compound preparation is mixed intimately with soil. The concentration of the active compound in the preparation is of virtually no importance, only the amount by weight of active compound per unit volume of soil, which is given in ppm (=mg/l), being decisive. The treated soil is filled into 250 ml pots and the pots are planted with pre-germinated broad beans. In this manner, the active compound can be taken up from the soil by the roots of the plants and transported into the leaves.
# After a further 7 days, the test is evaluated by estimating the dead animals. The root-systemic effect of the active compound is deduced from the destruction figures. It is 100% when all the test animals have been killed and 0% when just as many test insects are still alive as in the untreated control.
# [4] = compound (III) alone 0.00016% a.i., evaluation after 2 days
# [5] = compound (III) alone 0.00016% a.i., evaluation after 7 days
# [6] = compound (III) alone 0.0008% a.i., evaluation after 2 days
# [7] = compound (III) alone 0.0008% a.i., evaluation after 7 days
SMILES,Degree of destruction in % at active compound concentrations ([1]; 2.50 ppm in soil) [ppm = 0%],"kill [2, 4] [%]","kill [2, 5] [%]","kill [2, 6] [%]","kill [2, 7] [%]",Degree of destruction in % at active compound concentrations [3] [ppm = 50%],Degree of destruction in % at active compound concentrations ([1]; 1.25 ppm in soil) [ppm = 0%],Degree of destruction in % at active compound concentrations ([1]; 5.00 ppm in soil) [ppm = 0%],Degree of destruction in % at active compound concentrations ([1]; 0.30 ppm in soil)
N#C/N=C1\SCCN1Cc1ccc(Cl)nc1 [Compound (III l)],2.50,8,0,85,38,,,,
O=[N+]([O-])/N=C1\NCCN1Cc1ccc(Cl)nc1 [Compound (IIIa)],,18,2,90,78,0.035,1.25,,
C/C(=N\C#N)N(C)Cc1ccc(Cl)nc1 [Compound (IIIe)],,,,,,,,5.00,
CN1COCN(Cc2cnc(Cl)s2)/C1=N/[N+](=O)[O-] [Compound (IIIg)],,0,0,79,70,,,,0.30 ppm = 50%
CN/C(=N\[N+](=O)[O-])NCc1cnc(Cl)s1 [Compound (IIIk)],,10,2,48,28,,,,0.30 ppm = 0%
